Experimental findings from ChEMBL document CHEMBL6182833, “Design, synthesis and antiviral evaluation of triazole-linked 7-hydroxycoumarin-monoterpene conjugates as inhibitors of RSV replication” (RSC Med Chem, 2025) are described below.

Active and inactive are the calls of the source. No cut-off for these calls is given here.

Data set [1] relates to Human orthopneumovirus. Nature of the data set: Antiviral activity against Respiratory syncytial virus type B infected in human HEp-2 cells assessed as inhibition of viral replication preincubated with cells followed by viral infection for 1 hr followed by virus washout and further incubated with compound for 6 days by ELISA method. The data set is classed as functional, organism-based. On the technique in general: In an ELISA, binding on a coated surface is turned into a signal by an enzyme label.

The subject of data set [2] is Human orthopneumovirus. Nature of the data set: Antiviral activity against Respiratory syncytial virus type A infected in human HEp-2 cells assessed as inhibition of viral replication preincubated with cells and simultaneously with virus and measured after 25 hrs by ELISA method. In kind it is functional, organism-based.
Data set [3] relates to Human orthopneumovirus. Nature of the data set: Antiviral activity against Respiratory syncytial virus type A infected in human HEp-2 cells assessed as inhibition of viral replication preincubated with cells followed by compound washout followed by viral infection and measured after 25 hrs by ELISA method. In kind it is functional, organism-based.
A further data set deals with HEp-2. Briefly: Cytotoxicity against human HEp-2 cells assessed as cell growth inhibition measured after 24 hrs by MTT assay. In kind it is functional. In general terms: Tetrazolium assays rely on reduction of a dye to a coloured formazan, in cell work by metabolically active cells.
Data set [4] is described as follows: Selectivity index, ratio of CC50 for human HEp-2 cells to IC50 for Respiratory syncytial virus type A infected in human HEp-2 cells. The data set is classed as cell-based. Particulars: read-out: Ratio CC50/IC50.
Data set [5] can be described thus: Selectivity index, ratio of CC50 for human HEp-2 cells to IC50 for Respiratory syncytial virus type B infected in human HEp-2 cells. The data set is classed as cell-based. Particulars: read-out: Ratio CC50/IC50.
Data set [6] concerns Human orthopneumovirus. Nature of the data set: Antiviral activity against Respiratory syncytial virus type A infected in human HEp-2 cells assessed as inhibition of viral replication preincubated with cells followed by viral infection for 1 hr followed by virus washout and further incubated with compound for 6 days by ELISA method. In kind it is functional, organism-based.

Turning to `CC(C)CCCC(C)CCn1cc(COc2ccc3c4c(c(=O)oc3c2)CCC4)nn1` (stereo unspecified), the IC50 in the data set on Human orthopneumovirus [1] (read-out: IC50) was 0.23 µM; with Human orthopneumovirus [1] (read-out: pIC50 (converted)), 5.25 µM; in the data set on Human orthopneumovirus [6] (read-out: IC50), 1.7 µM; in the data set on Human orthopneumovirus [6] (read-out: pIC50 (converted)), 4.07 µM. Besides, the Activity entry in the data set on Human orthopneumovirus [2] and in the data set with Human orthopneumovirus [3] was “Weak_effect” each time. For the same compound, the 50% cytotoxic concentration (CC50) in the data set with HEp-2 worked out at 264 µM. Moreover, the figures for the selectivity ratio in data set [4] and in data set [5] were 160 and 1150, respectively.

On to `CC1(C)[C@H]2CC=C(Cn3cc(COc4ccc5c6c(c(=O)oc5c4)CCCC6)nn3)[C@@H]1C2`, for which the IC50 in the data set with Human orthopneumovirus [1] (read-out: IC50) worked out at 1.3 µM; with Human orthopneumovirus [6] (read-out: IC50) it was 0.6 µM. Besides, the Activity entry in the data set with Human orthopneumovirus [2] and with Human orthopneumovirus [3] was “Weak_effect” in each case. Moreover, the 50% cytotoxic concentration (CC50) with HEp-2 was 30.1 µM. In addition, the selectivity ratio in data set [4] worked out at 50; in data set [5], 23.3.

On to `CC(C)CCCC(C)CCn1cc(COc2ccc3c4c(c(=O)oc3c2)CCCC4)nn1` (stereo unspecified), for which the IC50 with Human orthopneumovirus [1] (read-out: IC50) is 4.5 µM; in the data set on Human orthopneumovirus [1] (read-out: pIC50 (converted)) it was 4.47 µM; in the data set on Human orthopneumovirus [6] (read-out: IC50), 3.7 µM; with Human orthopneumovirus [6] (read-out: pIC50 (converted)), 3.72 µM. Further, the CC50 in the data set with HEp-2 came out at 22.2 µM. The selectivity ratio in data set [4] came out at 6.1; in data set [5] it was 4.9.

`Cc1cc(=O)oc2cc(OCc3cn(CC4=CC[C@H]5C[C@@H]4C5(C)C)nn3)ccc12`: the IC50 with Human orthopneumovirus [1] (read-out: IC50) stood at 7 µM; in the data set on Human orthopneumovirus [6] (read-out: IC50) it was 6.4 µM. For the same compound, the CC50 with HEp-2 came out at 14.3 µM. Further, the selectivity ratio in data set [4] stood at 2.2; in data set [5] it was 2.

`CC(C)=CCC/C(C)=C/CCOc1ccc2c3c(c(=O)oc2c1)CCCC3`: the IC50 in the data set on Human orthopneumovirus [1] (read-out: IC50) amounted to 0.6 µM; with Human orthopneumovirus [6] (read-out: IC50) it was 0.57 µM. For the same compound, the 50% cytotoxic concentration (CC50) with HEp-2 stood at 51.1 µM. For the same compound, the selectivity ratio in data set [4] stood at 90; in data set [5], 85.2.

With `CC1(C)[C@H]2CC=C(COc3ccc4c5c(c(=O)oc4c3)CCCC5)[C@@H]1C2`, the IC50 in the data set on Human orthopneumovirus [1] (read-out: IC50) came out at 60.5 µM; in the data set on Human orthopneumovirus [6] (read-out: IC50) it was 108 µM. Further, in the data set with HEp-2, the CC50 was 334 µM. The selectivity ratio amounted to 3.5 in data set [4] and 5.5 in data set [5].

As for `CC(C)CCCC(C)CCn1cc(COc2ccc3c(-c4ccccc4)cc(=O)oc3c2)nn1` (stereo unspecified), the IC50 with Human orthopneumovirus [1] (read-out: IC50) is 5.2 µM; in the data set on Human orthopneumovirus [1] (read-out: pIC50 (converted)) it was 0.229 µM; with Human orthopneumovirus [6] (read-out: IC50), 4.1 µM; in the data set with Human orthopneumovirus [6] (read-out: pIC50 (converted)), 1.66 µM. For the same compound, the half-maximal cytotoxic concentration (CC50) in the data set on HEp-2 was 14.6 µM. In addition, the selectivity ratio in data set [4] is 3.5; in data set [5], 2.8.

`CC1(C)[C@@H]2CC=C(COc3ccc4c5c(c(=O)oc4c3)CCC5)[C@H]1C2`: the EC50 with Human orthopneumovirus [1] is 5.1 µM. Moreover, the CC50 with HEp-2 is 416 µM. Also, the selectivity ratio in data set [4] was 100; in data set [5], 81.6. In the data set on Human orthopneumovirus [6] (read-out: IC50), the IC50 amounted to 4.1 µM.

For `Cc1cc(=O)oc2cc(OCc3cn(CCC(C)CCCC(C)C)nn3)ccc12` (stereo unspecified), the IC50 with Human orthopneumovirus [1] (read-out: IC50) was 3.9 µM; in the data set on Human orthopneumovirus [1] (read-out: pIC50 (converted)) it was 3.89 µM; in the data set on Human orthopneumovirus [6] (read-out: IC50), 4.3 µM; in the data set on Human orthopneumovirus [6] (read-out: pIC50 (converted)), 4.27 µM. Also, in the data set with HEp-2, the 50% cytotoxic concentration (CC50) was determined as 16.1 µM. Besides, the selectivity ratio in data set [4] is 3.8; in data set [5] it was 4.1.

For the compound `CC(C)=CCCC(C)=CCn1cc(COc2ccc3c4c(c(=O)oc3c2)CCCC4)nn1`, the IC50 in the data set on Human orthopneumovirus [1] (read-out: IC50) was 1.2 µM; in the data set on Human orthopneumovirus [1] (read-out: pIC50 (converted)) it was 1.2 µM; in the data set on Human orthopneumovirus [6] (read-out: IC50) it was 0.46 µM; in the data set on Human orthopneumovirus [6] (read-out: pIC50 (converted)) it was 0.457 µM. For the same compound, in the data set on Human orthopneumovirus [2], the result was inactive. In addition, the CC50 in the data set with HEp-2 was 279 µM. The selectivity ratio in data set [4] was 605; in data set [5], 233.

On to `CC1(C)[C@@H]2CC=C(Cn3cc(COc4ccc5c6c(c(=O)oc5c4)CCCC6)nn3)[C@H]1C2`, for which the results for the IC50 in the data set with Human orthopneumovirus [1] (read-out: IC50), in the data set on Human orthopneumovirus [6] (read-out: IC50) and with Human orthopneumovirus [6] (read-out: pIC50 (converted)) were 3.5 µM, 4.1 µM and 4.07 µM, respectively. The CC50 in the data set on HEp-2 came to 25.5 µM. Also, the selectivity ratio in data set [4] was 6.3; in data set [5], 7.2.

In the case of `Cc1cc(=O)oc2cc(OCC3=CC[C@@H]4C[C@H]3C4(C)C)ccc12`, the IC50 in the data set with Human orthopneumovirus [1] (read-out: IC50) stood at 4.7 µM; with Human orthopneumovirus [6] (read-out: IC50), 1.3 µM. For the same compound, in the data set with HEp-2, the CC50 turned out to be 116 µM. In addition, the selectivity ratio amounted to 90 in data set [4] and 24.7 in data set [5].

Regarding `CC(C)=CCCC(C)=CCn1cc(COc2ccc3c4c(c(=O)oc3c2)CCC4)nn1`, the IC50 in the data set with Human orthopneumovirus [1] (read-out: IC50) was 6.5 µM; with Human orthopneumovirus [1] (read-out: pIC50 (converted)), 6.46 µM; in the data set with Human orthopneumovirus [6] (read-out: IC50), 5.7 µM; with Human orthopneumovirus [6] (read-out: pIC50 (converted)), 5.75 µM. In addition, in the data set on HEp-2, the 50% cytotoxic concentration (CC50) is 19.1 µM. The selectivity ratio turned out to be 3.3 in data set [4] and 2.9 in data set [5].

Regarding `CC1(C)[C@@H]2CC=C(COc3ccc4c5c(c(=O)oc4c3)CCCC5)[C@H]1C2`, the IC50 was 4.9 µM in the data set on Human orthopneumovirus [1] (read-out: IC50), 5.1 µM with Human orthopneumovirus [6] (read-out: IC50) and 6.17 µM in the data set on Human orthopneumovirus [6] (read-out: pIC50 (converted)). The CC50 in the data set on HEp-2 is 380 µM. In addition, the results for the selectivity ratio in data set [4] and in data set [5] were 77 and 78.2, respectively.

Consider `CC(C)c1ccc(Cn2cc(COc3ccc4c5c(c(=O)oc4c3)CCCC5)nn2)cc1`, for which the IC50 in the data set on Human orthopneumovirus [1] (read-out: IC50) is 23.5 µM; in the data set on Human orthopneumovirus [6] (read-out: IC50) it was 22.1 µM. Besides, in the data set with HEp-2, the cytotoxic concentration (CC50) was 37.7 µM. Besides, the values for the selectivity ratio in data set [4] and in data set [5] were 1.7 and 1.6, respectively.

Regarding `CC(C)=CCCC(C)=CCn1cc(COc2ccc3c(-c4ccccc4)cc(=O)oc3c2)nn1`, the IC50 with Human orthopneumovirus [1] (read-out: IC50) is 11.3 µM; in the data set with Human orthopneumovirus [1] (read-out: pIC50 (converted)) it was 11.2 µM; in the data set with Human orthopneumovirus [6] (read-out: IC50), 0.3 µM; in the data set on Human orthopneumovirus [6] (read-out: pIC50 (converted)), 5.75 µM. Also, in the data set on HEp-2, the cytotoxic concentration (CC50) is 12.3 µM. The results for the selectivity ratio in data set [4] and in data set [5] were 37 and 1.1, respectively.

Consider `Cc1cc(=O)oc2cc(OCc3cn(CC4=CC[C@@H]5C[C@H]4C5(C)C)nn3)ccc12`, for which the IC50 in the data set on Human orthopneumovirus [1] (read-out: IC50) amounted to 7.6 µM; in the data set on Human orthopneumovirus [6] (read-out: IC50), 6.6 µM. Moreover, in the data set with HEp-2, the CC50 worked out at 22.2 µM. For the same compound, the results for the selectivity ratio in data set [4] and in data set [5] were 3.3 and 2.9, respectively.

Take `CC1(C)[C@H]2CC=C(Cn3cc(COc4ccc5c6c(c(=O)oc5c4)CCC6)nn3)[C@@H]1C2`: the IC50 with Human orthopneumovirus [1] (read-out: IC50) was found to be 256 µM; in the data set on Human orthopneumovirus [6] (read-out: IC50), 629 µM. The CC50 with HEp-2 worked out at 278 µM. Moreover, the selectivity ratio is 0.4 in data set [4] and 1.1 in data set [5].

As a reminder, the CC50 is the concentration that lowers cell viability or growth by half. What is called EC50 is the concentration needed to bring the measured effect to its halfway point.
